The text below walks through data of PubChem BioAssay (NCI).

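Cells were grown in 96-well plates and exposed to each compound for 48 hours at five concentrations; endpoints were interpolated linearly between bracketing concentrations, or set to the highest concentration if not reached. At the GI50, growth is halved. TGI marks complete inhibition of growth.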 A value given as a limit tells only on which side of the number the result lay.

Test systems include HCT-116 colon; HOP-62 NSCLC; IGROV1 ovarian; KM12 colon; OVCAR-8 ovarian; SK-MEL-28 melanoma; SN12C renal; SNB-19 CNS; UO-31 renal; TK-10 renal.
Common to all, as to test: growth of human tumour cells (NCI), 48 h

As to `CCC1OC(=O)CC(O)C(C)C(OC2OC(C)CC(N(C)C)C2O)C(CC=O)CC(C)C(=O)/C=C/C2(C)OC2C1C` (stereo unspecified), the TGI in the assay on HCT-116 colon came out at 31.6 µM; in the assay on HOP-62 NSCLC, 71.7 µM; in the assay with IGROV1 ovarian, 25.4 µM; in the assay on KM12 colon, 28.6 µM; with OVCAR-8 ovarian it was 68.5 µM; in the assay on SK-MEL-28 melanoma, 42.3 µM. For the same molecule, the TGI in the assay with SN12C renal was found to be 39.1 µM; in the assay with SNB-19 CNS, 30.6 µM; in the assay on UO-31 renal, 80.4 µM.

On to `c1cnc2nc3n(c2c1)CSC3`, for which the TGI with HOP-62 NSCLC, with IGROV1 ovarian, in the assay with KM12 colon, in the assay with OVCAR-8 ovarian, in the assay on SK-MEL-28 melanoma and in the assay on SN12C renal was > 100 µM in each case. Moreover, the TGI with TK-10 renal and in the assay on UO-31 renal was > 100 µM throughout.

As for `CC(O)c1ccc(C(O)/C(=N\NC(=O)c2ccncc2)c2nc3ccc([N+](=O)[O-])cc3[nH]c2=O)cc1` (stereo unspecified), the TGI in the assay with HCT-116 colon, in the assay with HOP-62 NSCLC, in the assay with IGROV1 ovarian, in the assay with KM12 colon, in the assay with OVCAR-8 ovarian and in the assay with SK-MEL-28 melanoma was > 100 µM throughout. Moreover, the TGI in the assay with SN12C renal, with SNB-19 CNS and in the assay on UO-31 renal was > 100 µM throughout.

On to `Cc1cc(C)c(C2=NO[C@@H]3C(=O)N(c4ccc(Cc5ccc(N6C(=O)[C@H]7C(c8c(C)cc(C)cc8C)=NO[C@H]7C6=O)cc5)cc4)C(=O)[C@H]23)c(C)c1`, for which the TGI with HOP-62 NSCLC, in the assay on IGROV1 ovarian, with KM12 colon, with OVCAR-8 ovarian, in the assay on SK-MEL-28 melanoma and with SN12C renal was > 100 µM in each case. For the same molecule, the TGI in the assay with TK-10 renal and in the assay with UO-31 renal was > 100 µM each time.

Take `C1C[S][Ge]2([S]CCS1)[S]CCSCC[S]2`: the GI50 with HCT-116 colon, in the assay with HOP-62 NSCLC, in the assay with IGROV1 ovarian, with SK-MEL-28 melanoma, with SN12C renal and with UO-31 renal was > 100 µM each time. For the same molecule, the TGI in the assay on HCT-116 colon, in the assay with HOP-62 NSCLC, with IGROV1 ovarian, in the assay with SK-MEL-28 melanoma, in the assay with SN12C renal and in the assay with UO-31 renal was > 100 µM in each case.

As for `O=C(Nc1ccc(Cl)cc1)c1cc2ccccc2cc1OP(=O)(O)O`, the GI50 in the assay with HCT-116 colon is 3 µM; in the assay on HOP-62 NSCLC it was 3.57 µM; with IGROV1 ovarian, 3.81 µM; in the assay on KM12 colon, 3.14 µM; with OVCAR-8 ovarian it was 4.73 µM; with SK-MEL-28 melanoma it was 4.88 µM. For the same molecule, the results for the GI50 with SN12C renal, in the assay on TK-10 renal and in the assay with UO-31 renal were 3.4 µM, 3.65 µM and 3.75 µM, respectively. The TGI in the assay with HCT-116 colon was 11.9 µM; in the assay on HOP-62 NSCLC, 17 µM; with IGROV1 ovarian, 95.2 µM; with KM12 colon, 13.7 µM; in the assay on OVCAR-8 ovarian, > 100 µM; in the assay on SK-MEL-28 melanoma it was 55.3 µM. Moreover, the TGI with SN12C renal was > 100 µM; in the assay with TK-10 renal, 14.1 µM; in the assay with UO-31 renal, > 100 µM.

Regarding `COc1cc(OC)c(/C=C/C(=O)c2c(O)cc(OC)c(C3CCN(C)CC3)c2OC)c(OC)c1`, the GI50 in the assay on HCT-116 colon is 0.414 µM; with HOP-62 NSCLC, 1.73 µM; in the assay with KM12 colon, 1.71 µM; with SNB-19 CNS, 1.78 µM; in the assay with UO-31 renal, 1.36 µM. Further, the TGI with HCT-116 colon turned out to be 1.65 µM; with HOP-62 NSCLC it was 3.16 µM; in the assay on KM12 colon, 3.38 µM; with SNB-19 CNS, 3.81 µM; in the assay on UO-31 renal, 2.81 µM.

As for `O=C(NCCCl)NCc1ccccc1`, the TGI in the assay on HCT-116 colon, with HOP-62 NSCLC, in the assay with IGROV1 ovarian, with KM12 colon, in the assay on OVCAR-8 ovarian and in the assay with SK-MEL-28 melanoma was > 100 µM throughout. Besides, the TGI in the assay with SN12C renal, in the assay on SNB-19 CNS and in the assay on UO-31 renal was > 100 µM throughout.

`CN(CCCCN)c1ccc2c(=O)[nH][nH]c(=O)c2c1`: the TGI with HCT-116 colon was > 100 µM; in the assay with HOP-62 NSCLC, > 100 µM; in the assay with IGROV1 ovarian it was > 73.6 µM; in the assay with KM12 colon, > 100 µM; with SK-MEL-28 melanoma, > 100 µM; in the assay on SN12C renal, > 100 µM. The TGI with TK-10 renal and in the assay with UO-31 renal was > 100 µM in each case.

`C/C(CC(=O)Nc1ccc([N+](=O)[O-])cc1)=N\Nc1ccc([N+](=O)[O-])cc1[N+](=O)[O-]`: the TGI with HCT-116 colon, in the assay with HOP-62 NSCLC, in the assay on IGROV1 ovarian, in the assay with KM12 colon, in the assay with OVCAR-8 ovarian and in the assay on SK-MEL-28 melanoma was > 100 µM each time. The TGI with TK-10 renal and in the assay on UO-31 renal was > 100 µM in each case.

As to `Cn1c2c(c3ccccc31)CCN(CCCN1CCN(c3ccccc3)CC1)C2=O`, the TGI in the assay on HCT-116 colon amounted to 29.8 µM; in the assay on IGROV1 ovarian, 38 µM; in the assay with OVCAR-8 ovarian, 59.6 µM; in the assay with SK-MEL-28 melanoma it was 36.7 µM; in the assay on SN12C renal it was 46.7 µM; with TK-10 renal, 35.4 µM. Besides, in the assay with UO-31 renal, the TGI came out at 30.3 µM.
